Measurements as given in BindingDB's records for doi:10.1016/j.bmcl.2008.04.044 (Wyeth Research, 2008).

Target: Insulin-like growth factor 1 receptor (Homo sapiens, UniProt P08069)
Test: In Vitro Kinase Inhibition Assay
Details: pH 7.5; 22 °C
Method: Assays were performed in microtiter plates in reaction buffer containing biotinylated substrate, ATP, and purified kinase in the presence of test compounds. After incubation, product was detected using a homogeneous time-resolved fluorescence […] assay (LANCE).

Chain of Insulin-like growth factor 1 receptor (P08069 31-736 limits assumed): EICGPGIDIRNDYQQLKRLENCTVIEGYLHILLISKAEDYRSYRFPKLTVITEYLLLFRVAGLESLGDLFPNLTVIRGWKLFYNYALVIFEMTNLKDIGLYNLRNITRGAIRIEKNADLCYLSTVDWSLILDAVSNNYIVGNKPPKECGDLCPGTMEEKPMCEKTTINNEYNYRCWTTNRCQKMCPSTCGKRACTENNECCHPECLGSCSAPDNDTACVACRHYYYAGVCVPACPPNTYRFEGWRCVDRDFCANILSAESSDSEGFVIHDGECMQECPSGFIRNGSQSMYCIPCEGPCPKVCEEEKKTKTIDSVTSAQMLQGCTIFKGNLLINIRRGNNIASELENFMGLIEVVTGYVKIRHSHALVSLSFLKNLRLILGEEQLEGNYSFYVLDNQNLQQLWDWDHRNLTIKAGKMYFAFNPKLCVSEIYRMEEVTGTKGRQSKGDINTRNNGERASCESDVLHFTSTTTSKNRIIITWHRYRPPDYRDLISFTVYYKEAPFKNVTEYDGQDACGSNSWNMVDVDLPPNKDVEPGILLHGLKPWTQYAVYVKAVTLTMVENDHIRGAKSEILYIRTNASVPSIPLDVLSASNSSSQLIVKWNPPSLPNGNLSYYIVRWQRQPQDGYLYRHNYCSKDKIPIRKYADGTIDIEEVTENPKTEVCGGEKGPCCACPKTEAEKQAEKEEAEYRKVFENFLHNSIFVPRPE
Chain of Insulin-like growth factor 1 receptor (P08069 741-1367 limits assumed): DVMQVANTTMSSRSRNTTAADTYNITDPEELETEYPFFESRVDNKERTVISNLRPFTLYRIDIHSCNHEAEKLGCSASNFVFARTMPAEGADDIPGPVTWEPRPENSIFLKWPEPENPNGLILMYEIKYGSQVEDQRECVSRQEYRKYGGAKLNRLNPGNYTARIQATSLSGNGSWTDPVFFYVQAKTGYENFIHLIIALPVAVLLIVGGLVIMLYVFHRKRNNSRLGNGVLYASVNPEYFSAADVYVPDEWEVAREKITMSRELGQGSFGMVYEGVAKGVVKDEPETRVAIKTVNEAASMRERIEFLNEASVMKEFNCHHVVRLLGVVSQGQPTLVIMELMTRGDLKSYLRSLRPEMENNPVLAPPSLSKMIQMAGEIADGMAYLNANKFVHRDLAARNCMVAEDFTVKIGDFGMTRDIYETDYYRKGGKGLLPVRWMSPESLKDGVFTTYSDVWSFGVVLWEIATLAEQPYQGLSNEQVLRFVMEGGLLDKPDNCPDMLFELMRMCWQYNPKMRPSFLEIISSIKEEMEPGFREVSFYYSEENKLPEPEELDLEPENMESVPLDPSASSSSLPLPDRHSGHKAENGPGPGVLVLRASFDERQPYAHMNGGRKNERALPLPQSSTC

SMILES	IC50 [µM]
O=C1NC(=O)c2ccc(Nc3ccc4[nH]ccc4c3)cc2C1=CNc1ccc(CN2CCCCC2)cc1 [(4Z)-6-(1H-indol-5-ylamino)-4-({[4-(piperidin-1-ylmethyl)phenyl]amino}methylidene)-1,2,3,4-tetrahydroisoquinoline-1,3-dione]	> 10
Nc1cccc(Nc2ccc3c(c2)C(=CNc2ccc(CN4CCCCC4)cc2)C(=O)NC3=O)c1 [(4Z)-6-[(3-aminophenyl)amino]-4-({[4-(piperidin-1-ylmethyl)phenyl]amino}methylidene)-1,2,3,4-tetrahydroisoquinoline-1,3-dione]	> 10
O=C1NC(=O)c2ccc(Nc3cccc(C(F)(F)F)c3)cc2C1=CNc1ccc(CN2CCCCC2)cc1 [(4Z)-4-({[4-(piperidin-1-ylmethyl)phenyl]amino}methylidene)-6-{[3-(trifluoromethyl)phenyl]amino}-1,2,3,4-tetrahydroisoquinoline-1,3-dione]	> 10
O=C1NC(=O)c2ccc(Nc3cccc(Cl)c3)cc2C1=CNc1ccccc1 [(4Z)-6-[(3-chlorophenyl)amino]-4-[(phenylamino)methylidene]-1,2,3,4-tetrahydroisoquinoline-1,3-dione]	> 10
COc1cccc(Nc2ccc3c(c2)C(=CNc2ccccc2)C(=O)NC3=O)c1 [(4Z)-6-[(3-methoxyphenyl)amino]-4-[(phenylamino)methylidene]-1,2,3,4-tetrahydroisoquinoline-1,3-dione]	> 10

The remaining lines, values ahead:

IC50 [µM]	SMILES
> 10	CCOC(=O)c1ccc(Nc2ccc3c(c2)C(=CNc2ccc(CN4CCCCC4)cc2)C(=O)NC3=O)cc1 [ethyl 4-{[(4Z)-1,3-dioxo-4-({[4-(piperidin-1-ylmethyl)phenyl]amino}methylidene)-1,2,3,4-tetrahydroisoquinolin-6-yl]amino}benzoate]
> 10	CN(C)c1ccc(Nc2ccc3c(c2)C(=CNc2ccc(CN4CCCCC4)cc2)C(=O)NC3=O)cc1 [(4Z)-6-{[4-(dimethylamino)phenyl]amino}-4-({[4-(piperidin-1-ylmethyl)phenyl]amino}methylidene)-1,2,3,4-tetrahydroisoquinoline-1,3-dione]
> 10	COc1cc(Nc2ccc3c(c2)C(=CNc2ccc(CN4CCCCC4)cc2)C(=O)NC3=O)cc(C(F)(F)F)c1 [(4Z)-6-{[3-methoxy-5-(trifluoromethyl)phenyl]amino}-4-({[4-(piperidin-1-ylmethyl)phenyl]amino}methylidene)-1,2,3,4-tetrahydroisoquinoline-1,3-dione]
> 10	Cc1cccc(Nc2ccc3c(c2)C(=CNc2ccc(CN4CCCCC4)cc2)C(=O)NC3=O)c1 [(4Z)-6-[(3-methylphenyl)amino]-4-({[4-(piperidin-1-ylmethyl)phenyl]amino}methylidene)-1,2,3,4-tetrahydroisoquinoline-1,3-dione]
> 10	O=C1NC(=O)c2ccc(Nc3ccc(Cl)cc3)cc2C1=CNc1ccc(CN2CCCCC2)cc1 [(4Z)-6-[(4-chlorophenyl)amino]-4-({[4-(piperidin-1-ylmethyl)phenyl]amino}methylidene)-1,2,3,4-tetrahydroisoquinoline-1,3-dione]
